In the SangsterLogP compilation:

logP	SMILES
6.49	Clc1ccccc1-c1c(Cl)c(Cl)c(Cl)c(Cl)c1Cl
6.71	Clc1cc(Cl)c(Cl)c(-c2cc(Cl)c(Cl)cc2Cl)c1
6.68	Clc1cc(Cl)cc(-c2c(Cl)cc(Cl)c(Cl)c2Cl)c1
6.84	Clc1cccc(-c2c(Cl)c(Cl)c(Cl)c(Cl)c2Cl)c1
6.42	Clc1cccc(-c2c(Cl)c(Cl)cc(Cl)c2Cl)c1Cl
6.28	Clc1cc(Cl)c(-c2c(Cl)cccc2Cl)c(Cl)c1Cl
6.52	Clc1ccc(-c2c(Cl)c(Cl)cc(Cl)c2Cl)c(Cl)c1
7.02	Clc1cc(Cl)c(Cl)c(-c2cc(Cl)c(Cl)c(Cl)c2)c1
6.46	Clc1cc(Cl)c(-c2cc(Cl)c(Cl)cc2Cl)c(Cl)c1
6.79	Clc1cc(Cl)c(Cl)c(-c2ccc(Cl)c(Cl)c2Cl)c1
6.45	Clc1cc(Cl)c(-c2cc(Cl)cc(Cl)c2Cl)c(Cl)c1
6.5	Clc1cc(-c2c(Cl)cccc2Cl)c(Cl)c(Cl)c1Cl
6.68	Clc1cc(Cl)cc(-c2c(Cl)c(Cl)cc(Cl)c2Cl)c1
6.1	Clc1cc(Cl)c(Cl)c(-c2c(Cl)cccc2Cl)c1Cl
6.41	Clc1cc(Cl)c(Cl)c(-c2c(Cl)ccc(Cl)c2Cl)c1
6.31	Clc1cc(Cl)c(-c2c(Cl)ccc(Cl)c2Cl)c(Cl)c1
6.43	Clc1cccc(-c2c(Cl)cc(Cl)c(Cl)c2Cl)c1Cl

SMILES	logP
Clc1ccc(-c2cc(Cl)c(Cl)c(Cl)c2Cl)c(Cl)c1	6.8
Clc1cc(Cl)c(Cl)c(-c2cc(Cl)cc(Cl)c2Cl)c1	6.63
Clc1cc(Cl)c(-c2cc(Cl)c(Cl)c(Cl)c2)c(Cl)c1	6.74
Clc1cc(Cl)cc(-c2cc(Cl)c(Cl)c(Cl)c2Cl)c1	7.01
Clc1ccc(-c2c(Cl)c(Cl)c(Cl)c(Cl)c2Cl)cc1	6.87
Clc1cc(Cl)c(-c2c(Cl)ccc(Cl)c2Cl)cc1Cl	6.46
Clc1ccc(Cl)c(-c2c(Cl)ccc(Cl)c2Cl)c1Cl	6.27
Clc1ccc(-c2c(Cl)ccc(Cl)c2Cl)c(Cl)c1Cl	6.61
